This is an account of results in patent publication US12582706B2, “Tolerogenic antigen presenting cells” (Cell4Cure AB, priority 2019, dated 2026).

Test [1] relates to CD4^+ T cells. Nature of the test: Capacity of DCs to induce T cell proliferation in allogeneic MLR (3H-thymidine). Type of test: cell-based, human. The method, then:
(§1) CD14^+ monocytes were cultured at 1.25×10^6 cells/mi for 7 days in GMP DC Medium (CellGenix, Freiburg, Germany) containing HEPES, GlutaMAX and Penicillin-Streptomycin solution (Thermo Fisher, Waltham, MA) in the presence of granulocyte-macrophage colony-stimulating factor (GM-CSF; 100 ng/ml; PeproTech, London, UK) and interleukin-4 (IL-4; 100 ng/ml; PeproTech). Cells were replenished on day 3 with fresh medium and cytokines. Control DCs were differentiated in GM-CSF and IL-4 without addition of any further compounds and optionally further were treated with lipopolysaccharide (LPS; 0.5 ug/ml; Sigma-Aldrich, Saint Louise, MO) or a pro-inflammatory cytokine cocktail consisting of TNFalpha (10 ng/ml; PeproTech), IL-1 beta (10 ng/ml; PeproTech), and prostaglandin E2 (PGE2; 1 ug/ml; Sigma) on day 6 to generate stimulated immunogenic DCs. Tolerogenic DCs (tolDCs) were generated by treatment with various tolerogenic compounds: AhR agonist “C1” (C1; 20 nM; IMA-06201; Immunahr A B, Lund, Sweden) on days 0 and 3, TGFbeta1 (10 or 20 ng/ml; PeproTech) on day 3, and retinoic acid (2 uM; Sigma-Aldrich) on day 6. Control tolDC for comparison were established by treatment with Dexamethasone (Dex; 100 nM; Sigma-Aldrich) and Vitamin D3 (VitD3; 100 nM, StemCell Technologies) on day 3. Phenotypic stability of TolDCs was investigated by addition of LPS (0.5 ug/ml) or a pro-inflammatory cytokine cocktail consisting of TNFalpha (10 ng/ml), IL-1beta (10 ng/ml), PGE2 (1 ug/ml), and for Example 24 also IL-6 (10 ng/ml), for the last 24 hours of culture. On day 7, DCs were harvested and washed extensively before phenotyping and functional assays were performed.
In order to analyse the T cell stimulatory capacity of the generated DC populations, allogeneic MLRs were performed. DC/T cell cultures were carried out in complete medium: RPMI-1640 (Thermo Fisher) containing fetal bovine serum (FBS; 10%; Thermo Fisher), HEPES, GlutaMAX and Penicillin-Streptomycin solution. T cells (10^5 cells/well) were cultured with DCs at a T cell: DC ratio of 10:1 for 5-7 days. Proliferation was determined by incorporation of ^3H-thymidine for the last 18 hours of culture. For determination of CD4^+CD49b^+LAG3^+ Tr1 cells, cells were phenotyped as described below. For determination of CD25^hiFoxp3^+ Treg induction, the T cells from the MLR cultures were rested for additionally 7 days in complete medium containing IL-2 (20 IU/ml; PeproTech) and then subjected to phenotyping as described below.
Control DCs were differentiated from CD14^+ monocytes by culturing in GM-CSF and IL-4 for 7 days. Control DCs were either unstimulated or stimulated with LPS which was added on day 6 to generate immunogenic control DCs. […] TolDCs for comparison were established by treatment with Dex at 100 nM and VitD3 at 100 nM on day 3. On day 6, some of the DCs were treated with LPS (FIG. 5 (A); black bars) or a pro-inflammatory cytokine cocktail consisting of TNFalpha, IL-1beta and PGE2 (FIG. 5 (B); black bars) to test for phenotypical stability under various conditions. All cells were harvested on day 7 and cocultures with CD4^+ T cells were setup in an MLR setting at a T cell:DC ratio of 10:1. At the end of the 7-day cultures, proliferation of T cells was determined by ^3H-thymidine incorporation.
Various compounds were tested for their capacity to induce a tolerogenic phenotype in DCs. […] AhR agonist C1 (AhR ag) at 10 nM on days 0 and 3, TGFbeta at 10 ng/ml on day 3, and RA at 2 uM on day 6. […]

Test [2] concerns DCs. Description: DC expression of CD103 (flow cytometry). Type of test: cell-based, human. The conditions noted are these: Example 13, FIG. 13(E); compared to control DCs. As for the experimental part: CD14^+ monocytes were cultured at 1.25×10^6 cells/mi for 7 days in GMP DC Medium (CellGenix, Freiburg, Germany) containing HEPES, GlutaMAX and Penicillin-Streptomycin solution (Thermo Fisher, Waltham, MA) in the presence of granulocyte-macrophage colony-stimulating factor (GM-CSF; 100 ng/ml; PeproTech, London, UK) and interleukin-4 (IL-4; 100 ng/ml; PeproTech). Cells were replenished on day 3 with fresh medium and cytokines. […]
Cell surface expression was investigated using the following fluorescently labeled antibodies: CD11c (B-Ly6), CD83 (HB15e), CD86 (BU63), ILT3 (ZM4.1), CD141 (M80), GARP (7611), CD103 (B-Ly7), MERTK (590H11G1E3), BTLA (J168-540), CD49b (P1E6-05), HLA-G (87G), LAP (FNLAP), from BD Biosciences (Franklin Lakes, NJ), BioLegend (San Diego, CA) and Thermo Fisher. DCs were washed and resuspended in staining buffer (phosphate-buffered saline supplemented with 0.5% BSA and 2 mM EDTA) and incubated with antibody for 20 min followed by washing before acquisition on a MACSQuant 10 flow cytometer (Miltenyi Biotec) and analyzed using FlowJo software (BD Biosciences). […]
On the technique in general: In flow cytometry, cells or beads pass a laser one at a time.

Test [3] concerns CD4^+ T cells. Nature of the test: Capacity of DCs to induce CD25^hiFoxp3^+ Tregs in time-extended MLR. The format is cell-based, human. The following applies: Example 13, FIG. 13(H); compared to control DCs. The method, then: as §1
In order to analyse the T cell stimulatory capacity of the generated DC populations, allogeneic MLRs were performed. DC/T cell cultures were carried out in complete medium: RPMI-1640 (Thermo Fisher) containing fetal bovine serum (FBS; 10%; Thermo Fisher), HEPES, GlutaMAX and Penicillin-Streptomycin solution. […] Proliferation was determined by incorporation of ^3H-thymidine for the last 18 hours of culture. […]

For test [4], the system named is DCs. Nature of the test: DC tolerogenic index ILT3/CD86 (MFI ratio). Type of test: cell-based, human. The following applies: Example 13, FIG. 13(D); compared to control DCs. The source says:
The optimal tolDCs should express both low levels of co-stimulatory molecules and high levels of tolerogenic molecules. Thus, to take into account the combined effect of this, the ratio between the expression levels of representative tolerogenic and co-stimulatory molecules could be depicted as a proxy for the tolerogenic capacity of a certain subset of tolDCs. FIGS. 4 (A) and (B) show such tolerogenic index, defined as the ILT3/CD86 expression (MFI) ratio, on DCs cultured under various conditions in the absence (FIG. 4 (A); grey bars) or presence of LPS (FIG. 4 (B); black bars).

The test system of the next test is human DCs. The following applies: cited from earlier work.
Where [5] appears, read: during DC differentiation and maturation.

Consider “TGFbeta: transforming growth factor beta; TGFbeta1 (PeproTech) used in the examples”, for which the “induction of T cell proliferation (CPM)” value in the test with CD4^+ T cells [1] (Example 13, FIG. 13(G), compared to control DCs) is listed as “less T cell proliferation”. Moreover, the “effect on the tolerogenic effect of RA” value in the test with CD4^+ T cells [1] (Example 13, summary) is on record as “strengthens the tolerogenic effect of RA”. In addition, in the test with DCs [2], the “CD103 expression (MFI) on DCs” value is on record as “slightly higher”. For the same molecule, the “induction of Tregs (CD4^+CD25^+Foxp3^+)” value in the test on CD4^+ T cells [3] was “more Tregs”. Further, the “tolerogenic ratio (ILT3/CD86)” value with DCs [4] was “slightly higher”.

For `O=Cc1c2c(cc3c1=Nc1ccccc1-3)=Nc1ccccc1-2` [FICZ, 6-formylindolo[3,2-b]carbazole], in the test on human DCs (Jurado-Manzano et al, 2017), the “differentiation of naïve T cells into Treg cells by treated DCs” value was “able to induce the differentiation”. In the test with human DCs (setting [5]), the “expression of the enzyme IDO” value is given as “increased expression of the enzyme IDO”; the “production of pro-inflammatory cytokines” value is “reduced production of pro-inflammatory cytokines such as IL-6 and TNF-alpha”.
